Literature values as cited in patent US20110263720A1, “SYNTHESIS OF ALPHA-TOCOPHEROLQUINONE DERIVATIVES, AND METHODS OF USING THE SAME” (Penwest Pharmaceuticals Co., priority 2010, published 2011).

Tested on: mitochondrial function
Settings: in vitro; compared with CoQ10; background statement, no data

CC1=C(C)C(=O)C(CC[C@](C)(O)CCC[C@H](C)CCC[C@H](C)CCCC(C)C)=C(C)C1=O [R,R,R-alpha-tocopherolquinone]
potency in enhancing mitochondrial function: far more potent than CoQ^10
